Results taken from patent US20110054033A1, “METHODS OF USING ABSCISIC ACID FOR AMELIORATING HYPERTENSION AND VASCULAR INFLAMMATION” (Virginia Tech Intellectual Properties, Inc., priority 2009, published 2011).

How the values were obtained:
[1] = system: human aorta endothelial cells (HAECs); assay: Nitric oxide in HAEC culture supernatants; type: cell-based; details: 0.001-10 μM ABA
Description: (§1) FIG. 7 are graphs showing effect of ABA on (A) cAMP; (B) NO; and (C) eNOS. (A) Confluent human aortic endothelial cell (HAEC) were serum-starved using HBSS buffer for 30 min and then stimulated with various concentrations of ABA (0, 0.01, 0.1, 1, 10 μM) or Forskolin (1 μM) for […]. After removing supernatant, cells were lysated with 0.1 M HCL for 20 minutes to measure non-acetylated cAMP. (B) Confluent HAEC were serum-starved using HBSS buffer for 30 minutes and then stimulated with various concentrations of ABA (0, 0.001, 0.01, 0.1, 1, 10 μM) for 15 minutes to measure NO. Results (pmol/ml) from four independent experiments are depicted. […]
(§2) Confluent human aorta endothelial cells (HAECs) at passage 3 maintained with EGM-2 media (Clonetics, Walkerville, Md.) were adapted to Hank's buffered salt solution buffer for 30 min and then stimulated with ABA or forskolin (1 μM) for 10 min. For intracellular assessment of cAMP, the cells were harvested into 0.1 M HCL and the lysates were obtained by sonication and centrifugation. cAMP the lysates were determined by using an EIA kit (Assay Designs, Ann Arbor, Mich.) and results were obtained from four independent experiments. Nitric oxide levels in the cell culture supernatants were determined with the Nitric Oxide Assay Kit according to manufacturer's instructions (Assay Designs). […]

ApoE-deficient mice = assay: Blood pressure by non-invasive tail-cuff system; type: in vivo; details: for Systolic blood pressure vs control-fed mice: P<0.05
Description: FIG. 3 is a graph showing that ABA decreases systolic blood pressure in ApoE (−/−) mice. ApoE −/− mice were fed high fat diets created with (solid line) or without (dashed line) 100 mg/kg diet racemic abscisic acid (ABA). Systolic blood pressure was assessed on days 0, 28, 56, and 72 of dietary treatment. Data were analyzed as a completely randomized design.
Five-week old ApoE −/− mice (n=40) were housed at the animal facilities at Virginia Polytechnic Institute and State University in a room maintained at 75° F., with a 12:12 h light-dark cycle starting from 6:00 AM. All experimental procedures were approved by the Institutional Animal Care and Use Committee of Virginia Polytechnic Institute and State University and met or exceeded requirements of the Public Health Service/National Institutes of Health and the Animal Welfare Act. Mice were fed a high saturated fat (AIN-93G-based) diet containing 19.6% fat and 0.2% total cholesterol and obtaining 40.1% of Kcal from fat (4.4 Kcal/g) with or without 100 mg/kg of a racemic ABA mixture (Guri et al., J. Nutr. Biochem. 19:216-28, 2008). Systolic blood pressure was assessed on days 0, 28, 56, and 72. On day 84, fasted mice (12 h) were sacrificed by carbon dioxide asphyxiation and blood was withdrawn through cardiac puncture. Glucose concentrations of whole blood were assessed with an Accu-Chek® Glucometer (Roche, Indianapolis, Ind.) and plasma insulin was measured through insulin ELISA (Millipore, Billerica, Mass.). Aortas were collected for analysis of immune cell infiltration, histological evaluation of atherosclerotic lesions, and gene expression analyses.
Systolic blood pressure was measured with a computerized non-invasive tail-cuff system (CODA 2 mouse rat blood pressure system; Kent Scientific Corporation, Torrington, Conn.). Conscious animals were kept in a restrainer, with a standard acclimatization time of 10 min and gentle heating of the tail before every recording session. Fifteen recordings, which were preceded by five acclimitization recordings, were performed on each animal during each timepoint.

[2] = system: endothelial nitric oxide synthase (eNOS); assay: Aortic gene expression by real-time RT-PCR: eNOS; type: in vivo, mice; details: day 84, ratio to β-actin
Description: FIG. 4 are photos and graphs showing aortas collected on day 84 of dietary intervention. Representative photomicrographs (100×) of aortic root specimens from (A) control and (B) ABA-fed mice. (C) Analysis of lumenal areas and (D) tunica media areas were performed with aortic cross-sections using Image Pro Plus software. (E) Aortic thickness was analyzed as a ratio of the intima to the media. Gene expression in the aorta of (F) endothelial nitric oxide synthase (eNOS) and (G) 15-lipoxygenase (15-LOX) were measured as a ratio to the house-keeping gene β-actin. Data were analyzed as a completely randomized design.
Total RNA was isolated from aortas using the RNA isolation Minikit (Qiagen) according to the manufacturer's instructions. Total RNA (1 μg) was used to generate a complementary DNA (cDNA) template using the iScript cDNA Synthesis Kit (Bio-Rad, Hercules, Calif.). […] Each gene amplicon was purified with the MiniElute PCR Purification Kit (Qiagen) and quantitated on an agarose gel by using a DNA mass ladder (Promega). […]
Complementary DNA (cDNA) concentrations for genes of interest were examined by real-time quantitative PCR using an iCycler IQ System and the iQ SYBR green supermix (Bio-Rad). […] Results are presented as a starting quantity of target cDNA (picograms) per microgram of total RNA. […]

[3] = system: human aorta endothelial cells (HAECs); assay: Intracellular cAMP in human aorta endothelial cells; type: cell-based; details: tested 0.01-10 μM
Description: as §1, §2

[4] = ABA 100 mg/kg diet, data not shown

Compound: CC1=CC(=O)CC(C)(C)C1(O)/C=C/C(C)=C\C(=O)O (racemic) [ABA, abscisic acid]
- NO production [1]: enhanced NO production
- Diastolic blood pressure vs control-fed mice (ApoE-deficient mice; [4]): no significant affect
- Mean heart rate vs control-fed mice (ApoE-deficient mice; [4]): no significant affect
- Systolic blood pressure vs control-fed mice (ApoE-deficient mice; day 56, ABA 100 mg/kg diet): significantly reduced
- Systolic blood pressure vs control-fed mice (ApoE-deficient mice; day 72, ABA 100 mg/kg diet): significantly reduced
- Aortic expression of eNOS mRNA vs control [2]: significantly elevated
- Dose inducing maximal effect on intracellular cAMP [3]: 1 µM
- Lowest dose significantly increasing intracellular cAMP concentrations [3]: 0.1 µM
